Source: US8901301B2, “Pyrrolo[2,3-]pyridine kinase inhibitors” (Plexxikon Inc., priority 2009, dated 2014)

Experiments:
SW620 cells = experiment: Cell growth inhibition (Cell Titer Glo), SW620; assay type: cell-based; conditions: Homo sapiens, SW-620, 72 h; wild-type B-RAF cell line, 3 days
Protocol: (§1) Compounds are assessed in a variety of cell based assays, employing cells with or without B-Raf V600E mutation, for example cell lines with B-Raf V600E mutation (A375 and COLO205), as well as tumorigenic cell lines with wild-type B-RAF (SW620 and SK-MEL-2). Reagent and assay conditions are as follows:
SW620 cells growth medium: • Leibovitz's L-15 medium, 2 mM L-glutamine, 10% fetal bovine serum.
(§2) SK-MEL-2 cells growth medium: • Minimum Eagle essential medium, 2 mM L-glutamine, 1.5 g/L sodium bicarbonate, 0.1 mM non-essential amino acids, 1.0 mM sodium pyruvate, 10% fetal bovine serum. • On day 1, cells are seeded in growth media in 200 μL per well in a 96-well polystyrene tissue culture plate at 2,000 cells per well (A375, COLO205, SK-MEL-2) or 5,000 cells per well for SW620, and incubated at 37° C. and 5% CO2 overnight. • On day 2, compound at 4 mM in dimethyl sulfoxide is serially diluted 1:4 (10 μL with 30 μL dimethyl sulfoxide) seven times for a total of 8 concentration points. For each dilution point a 1 μL aliquot is added to a well containing cells (highest dilution point at 20 μM), with 1 μL of dimethyl sulfoxide as a negative control (each sample at 0.5% dimethyl sulfoxide). The cells are incubated for 3 days at 37° C. in 5% CO2. • On day 5, Cell Titer Glo (Promega) is thawed and added 100 μL to each well and the plate shaken for 1-2 minutes. The plates are incubated for 10 minutes at room temperature, then […] signal is read (e.g. on Safire reader). The measured fluoresence correlates directly with cell number, such that the reading as a function of compound concentration is used to determine the IC50 value.

CYP2D6 = molecular target: T1, CYP2D6 (Homo sapiens, UniProt P10635); experiment: CYP inhibition (fluorescent substrate), CYP2D6; assay type: in vitro ADME; conditions: substrate AMMC; read-out: Cyp IC50 (μM) 2D6
T1 construct: purchased BD Biosciences
T1 sequence (P10635 whole entry): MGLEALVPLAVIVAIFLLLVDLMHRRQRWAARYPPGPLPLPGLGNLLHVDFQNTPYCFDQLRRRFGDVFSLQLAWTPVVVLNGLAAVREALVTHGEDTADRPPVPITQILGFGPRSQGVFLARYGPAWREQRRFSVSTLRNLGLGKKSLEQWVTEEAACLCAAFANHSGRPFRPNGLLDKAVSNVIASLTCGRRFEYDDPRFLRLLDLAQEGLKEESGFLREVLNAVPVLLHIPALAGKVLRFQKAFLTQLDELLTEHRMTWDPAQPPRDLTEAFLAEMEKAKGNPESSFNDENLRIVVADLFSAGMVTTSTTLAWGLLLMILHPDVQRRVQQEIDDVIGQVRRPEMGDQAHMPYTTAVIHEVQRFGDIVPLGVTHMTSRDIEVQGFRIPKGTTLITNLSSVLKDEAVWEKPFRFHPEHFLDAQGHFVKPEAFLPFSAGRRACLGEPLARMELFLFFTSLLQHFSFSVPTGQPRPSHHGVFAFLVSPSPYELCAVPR
Protocol: (§3) CYP (Cytochrome P450) enzymes are the major drug metabolizing enzymes present in the liver. The inhibition of CYP enzyme activity (IC50) for each of CYP1A2, CYP2C19, CYP2C9, CYP2D6, CYP3A4(BFC) and CYP3A4(BQ) is determined for compounds, where inhibition of metabolism of a known substrate leads to a decrease in the fluorescence of the metabolized product. The fluorescence of the product is monitored as a function of compound concentration. Compounds are dissolved in dimethyl sulfoxide to a concentration of 100 mM. These are diluted 1 μL into 82 μL of acetonitrile. An 11 μL aliquot of this solution is then added to 204 μL of cofactor mix (1.3% NADPH Regeneration system Solution A, 1.04% NADPH Regeneration system Solution B from BD Biosciences, 5% acetonitrile and 0.05% dimethyl sulfoxide). These are then serially diluted 1:1 (160 μL to 160 μL co-factor mix) for a total of 10 points. A 10 μL aliquot of this final mixture is dispensed into 384 well assay plates and incubated for 10 minutes at 37° C. […] Assay plates are incubated at 37° C. (CYP1A2-15 min; CYP2C9-45 min; CYP2C19, 2D6 and 3A4-30 min) and read in a Tecan Safire 2 plate reader (CYP1A2, 2C19 and 3A4 409 ex/460 em; CYP2C9 and 2D6 409 ex/530 em). The signal versus compound concentration is used to determine the IC50. The enzymes and substrates for this assay are obtained from BD Biosciences.

Hgk = Hgk (Homo sapiens, UniProt O95819); experiment: Biochemical inhibitory activity, other protein kinases: Hgk; conditions: for Kinase having IC50 of <1 μM: listing of the kinase means IC50 <1 μM; for Kinase having IC50 of >1 μM: listing of the kinase means IC50 >1 μM
Hgk, sequence (O95819 whole entry, species assumed): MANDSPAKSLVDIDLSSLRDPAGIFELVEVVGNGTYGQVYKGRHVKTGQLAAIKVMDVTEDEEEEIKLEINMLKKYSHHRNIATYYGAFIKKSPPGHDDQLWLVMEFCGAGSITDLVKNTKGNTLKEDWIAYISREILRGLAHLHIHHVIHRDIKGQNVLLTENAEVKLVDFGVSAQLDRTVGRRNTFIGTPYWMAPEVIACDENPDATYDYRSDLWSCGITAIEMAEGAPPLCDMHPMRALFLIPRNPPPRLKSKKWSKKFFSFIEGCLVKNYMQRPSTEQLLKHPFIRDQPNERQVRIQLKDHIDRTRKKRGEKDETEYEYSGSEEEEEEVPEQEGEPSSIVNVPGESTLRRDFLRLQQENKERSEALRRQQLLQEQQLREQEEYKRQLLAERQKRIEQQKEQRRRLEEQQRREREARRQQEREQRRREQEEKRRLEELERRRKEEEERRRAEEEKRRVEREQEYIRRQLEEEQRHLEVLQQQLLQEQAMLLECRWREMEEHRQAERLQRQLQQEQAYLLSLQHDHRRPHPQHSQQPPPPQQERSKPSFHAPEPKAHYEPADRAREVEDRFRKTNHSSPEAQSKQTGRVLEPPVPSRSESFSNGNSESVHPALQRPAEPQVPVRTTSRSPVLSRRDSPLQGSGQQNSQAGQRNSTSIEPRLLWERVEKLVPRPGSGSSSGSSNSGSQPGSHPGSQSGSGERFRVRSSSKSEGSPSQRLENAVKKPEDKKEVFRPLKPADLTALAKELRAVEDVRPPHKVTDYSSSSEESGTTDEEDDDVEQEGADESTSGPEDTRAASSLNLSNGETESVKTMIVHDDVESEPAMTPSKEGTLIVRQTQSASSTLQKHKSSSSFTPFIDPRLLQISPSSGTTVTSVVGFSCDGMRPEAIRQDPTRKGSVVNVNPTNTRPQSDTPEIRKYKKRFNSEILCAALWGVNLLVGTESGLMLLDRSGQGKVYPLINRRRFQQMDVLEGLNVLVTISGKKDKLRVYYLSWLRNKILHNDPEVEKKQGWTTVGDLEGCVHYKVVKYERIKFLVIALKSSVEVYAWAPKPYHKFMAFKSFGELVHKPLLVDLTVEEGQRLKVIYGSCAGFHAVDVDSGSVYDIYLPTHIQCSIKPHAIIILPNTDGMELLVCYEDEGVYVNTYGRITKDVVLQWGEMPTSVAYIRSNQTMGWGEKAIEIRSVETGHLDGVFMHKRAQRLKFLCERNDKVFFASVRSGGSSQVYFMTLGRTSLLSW

B-Raf V600E = molecular target: T2, B-Raf V600E (Homo sapiens, UniProt P15056, V600E); experiment: Raf biochemical kinase assay (biotin-MEK1 phosphorylation), B-Raf V600E; conditions: 100 μM ATP
T2 construct: purchased Upstate Biotechnology
T2 sequence (P15056 whole entry V600E): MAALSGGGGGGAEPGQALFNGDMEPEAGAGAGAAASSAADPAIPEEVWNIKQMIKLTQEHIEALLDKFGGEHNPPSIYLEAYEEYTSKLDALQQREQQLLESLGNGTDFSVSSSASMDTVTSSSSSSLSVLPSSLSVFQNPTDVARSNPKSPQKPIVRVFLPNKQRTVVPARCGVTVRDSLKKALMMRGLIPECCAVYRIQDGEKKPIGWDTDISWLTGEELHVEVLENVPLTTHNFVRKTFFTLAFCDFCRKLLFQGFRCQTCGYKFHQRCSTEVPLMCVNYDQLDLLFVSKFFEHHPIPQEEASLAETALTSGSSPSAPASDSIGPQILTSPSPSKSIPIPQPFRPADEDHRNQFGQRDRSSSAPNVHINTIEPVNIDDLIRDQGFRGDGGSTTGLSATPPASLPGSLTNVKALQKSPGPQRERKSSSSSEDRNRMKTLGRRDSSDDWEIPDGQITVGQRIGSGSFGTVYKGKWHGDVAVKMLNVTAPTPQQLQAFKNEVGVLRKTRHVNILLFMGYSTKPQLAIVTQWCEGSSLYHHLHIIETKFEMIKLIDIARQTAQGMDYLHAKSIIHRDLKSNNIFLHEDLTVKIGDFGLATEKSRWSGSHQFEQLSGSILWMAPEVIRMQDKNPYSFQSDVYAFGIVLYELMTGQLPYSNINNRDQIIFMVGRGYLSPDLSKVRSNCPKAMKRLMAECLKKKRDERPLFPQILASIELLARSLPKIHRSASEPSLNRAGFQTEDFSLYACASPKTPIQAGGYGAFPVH
Protocol: (§4) Assays for biochemical and cell based activity are known in the art, for example, as described in PCT publication WO 2007/002433, the disclosure of which is hereby incorporated by reference as it relates to such assays. For example, the biochemical activity IC50 values are determined with respect to inhibition of A-Raf kinase activity, B-Raf kinase activity, c-Raf-1 kinase activity, or B-Raf V600E kinase activity, where inhibition of phosphorylation of a peptide substrate is measured as a function of compound concentration. Compounds to be tested are diluted in dimethyl sulfoxide to a concentration of 0.1 mM. These are serially diluted 15 μL into 30 μL of dimethyl sulfoxide seven times in 96 well plates for a total of 8 dilution points, and for each dilution point 1 μL is added to a well of an assay plate. Plates are prepared such that each well in a 384 well plate contains 1 μL of compound in 10 μL volume with 0.1 ng Raf enzyme (i.e. any of A-Raf, B-Raf, c-Raf-1 or B-Raf V600E, Upstate Biotechnology or prepared by methods known to one of skill in the art), 50 mM HEPES, pH 7.0, 50 mM NaCl, 2 mM MgCl2, 1 mM MnCl2, 0.01% Tween-20, 1 mM DTT, and 100 nM biotin-MEK1 as substrate. The reaction is started with addition of 10 μL of 200 μM ATP (i.e. final 100 μM ATP). After incubation of the kinase reaction for 45 minutes at room temperature, 5 μL/well of Stop Solution is added (25 mM Hepes pH 7.5, 100 mM EDTA, 0.01% BSA with donor beads (Streptavidin coated beads, Perkin Elmer), acceptor beads (Protein A coated, Perkin Elmer), and anti phosphor MEK1/2 antibody (CellSignal), each at final concentration 10 μg/mL). The plates are incubated for 3 hours at room temperature and read on Envision reader (Perkin Elmer). Phosphorylation of Mek1 results in binding of the anti-phosphor-MEK1/2 antibody and association of the donor and acceptor beads such that signal correlates with kinase activity. The signal vs. compound concentration is used to determine the IC50.

Fms = Fms (Homo sapiens, UniProt P07333); experiment: Biochemical inhibitory activity, other protein kinases: Fms; conditions: listing of the kinase means IC50 >1 μM
Fms, sequence (P07333 20-972, species assumed): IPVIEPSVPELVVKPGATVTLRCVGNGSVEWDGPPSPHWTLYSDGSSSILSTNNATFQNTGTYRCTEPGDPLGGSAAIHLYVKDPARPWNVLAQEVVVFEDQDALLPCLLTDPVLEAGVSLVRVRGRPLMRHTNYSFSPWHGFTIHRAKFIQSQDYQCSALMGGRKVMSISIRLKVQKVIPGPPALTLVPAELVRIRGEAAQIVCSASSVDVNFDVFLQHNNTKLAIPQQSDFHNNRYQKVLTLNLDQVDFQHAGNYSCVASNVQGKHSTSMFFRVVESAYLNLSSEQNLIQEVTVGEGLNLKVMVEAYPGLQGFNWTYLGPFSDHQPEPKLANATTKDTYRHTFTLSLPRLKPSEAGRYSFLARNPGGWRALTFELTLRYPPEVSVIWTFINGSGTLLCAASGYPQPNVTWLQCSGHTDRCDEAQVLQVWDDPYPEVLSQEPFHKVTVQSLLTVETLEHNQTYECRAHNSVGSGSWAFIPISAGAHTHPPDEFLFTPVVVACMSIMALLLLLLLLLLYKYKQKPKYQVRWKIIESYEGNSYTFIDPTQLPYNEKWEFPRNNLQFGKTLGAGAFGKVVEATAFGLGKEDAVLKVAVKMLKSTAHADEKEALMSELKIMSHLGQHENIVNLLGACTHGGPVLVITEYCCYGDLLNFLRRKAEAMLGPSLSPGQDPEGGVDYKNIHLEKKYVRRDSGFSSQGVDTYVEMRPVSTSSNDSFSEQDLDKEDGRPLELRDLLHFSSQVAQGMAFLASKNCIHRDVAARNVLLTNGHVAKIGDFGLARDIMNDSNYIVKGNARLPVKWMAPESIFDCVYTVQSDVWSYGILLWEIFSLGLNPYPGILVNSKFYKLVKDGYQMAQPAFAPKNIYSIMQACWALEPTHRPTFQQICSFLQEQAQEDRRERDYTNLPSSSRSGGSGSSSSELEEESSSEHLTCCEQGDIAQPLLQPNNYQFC

B-Raf = molecular target: T3, B-Raf (Homo sapiens, UniProt P15056); experiment: Raf biochemical kinase assay (biotin-MEK1 phosphorylation), B-Raf; conditions: 100 μM ATP
T3 construct: purchased Upstate Biotechnology
T3 sequence (P15056 whole entry): as the sequence (P15056 whole entry V600E) above, with E600V counted along it
Protocol: as §4

COLO205 cells = experiment: Cell growth inhibition (Cell Titer Glo), COLO205; assay type: cell-based; conditions: Homo sapiens, COLO 205, 72 h; B-Raf V600E cell line, 3 days
Protocol: as §1
COLO205 cells growth medium: • RPMI 1640, 2 mM L-glutamine, 1.5 g/L sodium bicarbonate, 4.5 g/L D-glucose, 10 mM HEPES, 1.0 mM sodium pyruvate, 10% fetal bovine serum.
as §2

CYP2C19 = molecular target: T4, CYP2C19 (Homo sapiens, UniProt P33261); experiment: CYP inhibition (fluorescent substrate), CYP2C19; assay type: in vitro ADME; conditions: substrate CEC; read-out: Cyp IC50 (μM) 2C19
T4 construct: purchased BD Biosciences
T4 sequence (P33261 whole entry): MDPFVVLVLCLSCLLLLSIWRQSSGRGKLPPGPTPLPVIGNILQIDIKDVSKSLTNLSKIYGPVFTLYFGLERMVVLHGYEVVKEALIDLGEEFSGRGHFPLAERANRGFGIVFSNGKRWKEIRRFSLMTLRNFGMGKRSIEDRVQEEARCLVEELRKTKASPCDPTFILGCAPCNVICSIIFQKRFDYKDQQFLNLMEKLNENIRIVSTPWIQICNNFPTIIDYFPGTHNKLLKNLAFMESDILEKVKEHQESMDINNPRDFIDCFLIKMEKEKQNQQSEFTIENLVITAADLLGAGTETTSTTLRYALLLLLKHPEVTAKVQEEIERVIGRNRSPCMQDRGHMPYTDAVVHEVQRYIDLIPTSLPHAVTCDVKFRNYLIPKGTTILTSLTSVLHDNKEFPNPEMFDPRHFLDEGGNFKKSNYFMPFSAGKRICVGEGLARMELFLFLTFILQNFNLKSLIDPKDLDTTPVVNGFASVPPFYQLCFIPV
Protocol: as §3

| SMILES | IC50 (SW620 cells) | IC50 (CYP2D6) | Kinase having IC50 of <1 μM (Hgk) | IC50 (B-Raf V600E) | Kinase having IC50 of >1 μM (Fms) | IC50 (B-Raf) | IC50 (COLO205 cells) | IC50 (CYP2C19) | Kinase having IC50 of >1 μM (Hgk) |
| --- | --- | --- | --- | --- | --- | --- | --- | --- | --- |
| N#Cc1cnc2[nH]cc(C(=O)c3c(F)ccc(NS(=O)(=O)c4cc(F)ccc4F)c3F)c2c1 [Compound P-0004, N-[3-(5-cyano-1H-pyrrolo[2,3-b]pyridine-3-carbonyl)-2,4-difluoro-phenyl]-2,5-difluoro-benzenesulfonamide] | > 20 µM | > 10 µM | Hgk | < 0.01 µM | Fms | < 0.1 µM | < 1 µM | > 10 µM | – |
| CN(C)S(=O)(=O)Nc1ccc(F)c(C(=O)c2c[nH]c3ncc(C#N)cc23)c1F [Compound P-0007, N,N-dimethylamino-sulfonic acid [3-(5-cyano-1H-pyrrolo[2,3-b]pyridine-3-carbonyl)-2,4-difluoro-phenyl]-amide] | > 20 µM | > 10 µM | – | < 0.01 µM | Fms | < 1 µM | < 3 µM | > 10 µM | Hgk |
| N#Cc1cnc2[nH]cc(C(=O)c3c(F)ccc(NS(=O)(=O)c4cccc(F)c4)c3F)c2c1 [Compound P-0005, N-[3-(5-cyano-1H-pyrrolo[2,3-b]pyridine-3-carbonyl)-2,4-difluoro-phenyl]-3-fluoro-benzenesulfonamide] | > 20 µM | > 10 µM | Hgk | < 0.01 µM | Fms | < 0.01 µM | < 1 µM | > 10 µM | – |
| CCCS(=O)(=O)Nc1cccc(C(=O)c2c[nH]c3ncc(C#N)cc23)c1F [Compound P-0003, propane-1-sulfonic acid [3-(5-cyano-1H-pyrrolo[2,3-b]pyridine-3-carbonyl)-2-fluoro-phenyl]-amide] | > 20 µM | > 10 µM | – | ~0.1 µM | Fms | < 1 µM | < 2 µM | > 10 µM | Hgk |
| N#Cc1cnc2[nH]cc(C(=O)c3c(F)ccc(NS(=O)(=O)N4CCCC4)c3F)c2c1 [Compound P-0006, pyrrolidine-1-sulfonic acid [3-(5-cyano-1H-pyrrolo[2,3-b]pyridine-3-carbonyl)-2,4-difluoro-phenyl]-amide] | – | > 10 µM | – | < 0.01 µM | Fms | < 0.1 µM | < 1 µM | > 10 µM | Hgk |
| CCCS(=O)(=O)Nc1ccc(F)c(C(=O)c2c[nH]c3ncc(C#N)cc23)c1F [Compound P-0002, propane-1-sulfonic acid [3-(5-cyano-1H-pyrrolo[2,3-b]pyridine-3-carbonyl)-2,4-difluoro-phenyl]-amide] | > 20 µM | > 10 µM | – | < 0.01 µM | Fms | < 0.1 µM | < 1 µM | 5 to 10 µM | Hgk |
| CCCS(=O)(=O)Nc1ccc(F)c(C(=O)c2c[nH]c3ncc(-c4cnc(OC)nc4)cc23)c1F [Compound P-0001, propane-1-sulfonic acid {2,4-difluoro-3-[5-(2-methoxy-pyrimidin-5-yl)-1H-pyrrolo[2,3-b]pyridine-3-carbonyl]-phenyl}-amide] | > 20 µM | > 10 µM | – | < 0.01 µM | Fms | < 0.1 µM | < 1 µM | > 10 µM | Hgk |
